Results on 14 molecules are retold here after patent US4994482A, “Arylpyrazol derivatives as anti-platelet agents, compositions and use” (Bristol-Myers Squibb Company, priority 1990, dated 1991).

In general, IC50 refers to the point on the concentration scale where inhibition reaches its midpoint.

In brackets after ≈: the same amount, converted by molar mass. Read-outs that look alike come from different tables or passages of the source.

Experiment [1] concerns human platelet-rich plasma (ADP-induced platelet aggregation). The experiment is described as follows: In vitro inhibition of ADP-induced human platelet aggregation (Born aggregometer method). It is filed as cell-based. The protocol:
(§1) The aggregometer method of Born, C. […] The human volunteer donor's arm is cleansed with 70% ethyl alcohol. A sterile 20 ml syringe and needle are used to withdraw 20 ml of blood.
(§2) All glassware used for preparation of PRP is silicon treated. […] The various compounds tested were dissolved in dimethylsulfoxide (DMSO) so that 5 mcl added to the platelet rich plasma would yield the desired test concentration. Vehicle control trials were done and compared with aggregation induced in platelet rich plasma containing various concentrations of the test compounds. Dose response curves were obtained and Inhibitor Concentration IC50) values calculated.

In experiment [2] the test system is human platelet-rich plasma (collagen-induced platelet aggregation). The experiment is described as follows: In vitro inhibition of collagen-induced human platelet aggregation (Born aggregometer method). It counts as cell-based. The note with it: human PRP, 0.05 mL of a collagen suspension. The protocol:
as §1, §2

For experiment [3], the system named is biolaser induced thrombosis (thrombus formation). The experiment is described as follows: In vivo inhibition of biolaser induced thrombosis in rabbit ear chamber. Set-up: species or system English lop-ear rabbits. An excerpt: The laser induced thrombosis method is a modification of the technique developed by Sanders, A. G., et al. in Brit. J Exp. Pathol., 1954, 35, 331 and Grant, L., et al. in Proc. Soc. Exp. Biol. Med., 1965, 119, 1123. A detailed description of this method has been described by Fleming, J. S., et al., in Platelets and Thrombosis, A. Scriabine and S. Sherry, eds., Baltimore, Univ. Park Press, pp. 247-262, 1974 and is hereby incorporated by reference.
Briefly, Lucite ear chambers were chronically implanted in adult, English lop-ear rabbits. The animals were conditioned to lie quietly in the supine position. Localized microvascular injury was induced by focusing a single ruby laser beam through a microscope into the lumen of a vessel 10-60 μM in diameter. This evoked the formation of a small thrombus consisting of platelets accumulated around a core of one or two damaged red cells. Thrombus area was determined as a product of two perpendicular measurements made by using a micrometer eye piece. The mean thrombus area (μM^2) obtained for 10 trials in each rabbit served as a control value. The test compound was administered orally and post-dose trials were performed at selected times. Pharmacological activity was evaluated by comparing pre- and post-dose mean thrombus areas.

Where [4] appears, read: human PRP, ADP 0.5 mcg/mL, read-out: IC50 - Human PRP vs:ADP.

Turning to `OCCN(CCO)c1nc(N2CCCCC2)c2nc(N(CCO)CCO)nc(N3CCCCC3)c2n1` [dipyridamole, reference compound], the concentration for half-maximal inhibition (IC50) in experiment [1] (Homo sapiens, read-out: IC50 vs. ADP) is greater than 512 µg/mL.

For the molecule `O=C(O)CSCCCCCCn1nc(-c2ccccc2)c(-c2ccccc2)c1-c1ccccc1` [Example 21, [[6-(3,4,5-Triphenyl-lH-pyrazol-1-yl)hexyl]thio]acetic acid], the IC50 is 0.41 µg/mL (≈ 0.871 µM) in experiment [1] (setting [4]) and 0.15 µg/mL (≈ 0.319 µM) in experiment [2].

In the case of `O=C(O)CCCCCCCn1nc(-c2ccccc2)c(-c2ccccc2)c1-c1ccccc1` [Example 8, 3,4,5-Triphenyl-lH-pyrazol-1-octanoic acid hydrate], the half-maximal inhibitory concentration (IC50) in experiment [1] (setting [4]) was determined as 1.9 µg/mL.

For the molecule `O=C(O)C[S+]([O-])CCCCCCn1nc(-c2ccccc2)c(-c2ccccc2)c1-c1ccccc1` (stereo not shown) [Example 25, [[6-(3,4,5-Triphenyl-lH-pyrazol-1-yl)hexyl]sulfinyl]acetic acid hydrate], the IC50 in experiment [1] (setting [4]) was 3.2 µg/mL.

Take `O=C(O)CSCCCCCn1nc(-c2ccccc2)c(-c2ccccc2)c1-c1ccccc1` [Example 27, [[5-(3,4,5-Triphenyl-lH-pyrazol-1-yl)pentyl]thio]acetic acid]: the IC50 in experiment [1] (setting [4]) amounted to 1.9 µg/mL (≈ 4.16 µM); in experiment [2], 0.16 µg/mL (≈ 0.35 µM).

For `O=C(O)CCCCCCCCn1nc(-c2ccccc2)c(-c2ccccc2)c1-c1ccccc1` [Example 15, 3,4,5-Triphenyl-lH-pyrazol-1-nonanoic acid hydrate], the IC50 was found to be 0.16 µg/mL in experiment [1] (setting [4]) and 0.068 µg/mL in experiment [2]. The “inhibition of thrombus formation” value is “approximately 30%” in experiment [3] (oral 1 mg/kg), “over 60%” in experiment [3] (oral 10 mg/kg) and “over 60%” in experiment [3] (oral 30 mg/kg).

For `O=C(O)CCCCCCCn1ncc(-c2ccccc2)c1-c1ccccc1` [Example 44, 4,5-Diphenyl-lH-pyrazole-1-octanoic acid], the IC50 in experiment [1] (setting [4]) was 0.6 µg/mL (≈ 1.66 µM).

In the case of `O=C(O)CCCC=CCCCn1nc(-c2ccccc2)c(-c2ccccc2)c1-c1ccccc1` [Example 10, (Z) and (E)-9-(3,4,5-Triphenyl-lH-pyrazol-1-yl)-5-nonenoic acid hydrate], the IC50 amounted to 0.35 µg/mL in experiment [1] (setting [4]) and 0.12 µg/mL in experiment [2].

As for `O=C(O)COCCCCCCn1nc(-c2ccccc2)c(-c2ccccc2)c1-c1ccccc1` [Example 4, [[6-(3,4,5-Triphenyl-lH-pyrazol-1-yl)hexyl]oxy]acetic acid], the IC50 in experiment [1] (setting [4]) stood at 0.2 µg/mL (≈ 0.44 µM); in experiment [2], 0.096 µg/mL (≈ 0.211 µM).

For `COC(=O)CCCCCCCCn1nc(-c2ccccc2)c(-c2ccccc2)c1-c1ccccc1` [Example 14, Methyl 3,4,5-triphenyl-lH-pyrazol-1-nonanoate], the results for the IC50 in experiment [1] (setting [4]) and in experiment [2] were 2 µg/mL (≈ 4.29 µM) and 0.27 µg/mL (≈ 0.579 µM), respectively.

Turning to `O=C(O)CCCCCCCCn1ncc(-c2ccccc2)c1-c1ccccc1` [Example 18, 4,5-Diphenyl-lH-pyrazol-1-nonanoic acid], the IC50 turned out to be 2.5 µg/mL (≈ 6.64 µM) in experiment [1] (setting [4]) and 0.45 µg/mL (≈ 1.2 µM) in experiment [2].

Regarding `O=C(O)CCCCCCCCCn1nc(-c2ccccc2)c(-c2ccccc2)c1-c1ccccc1` [Example 36, 3,4,5-triphenyl-lH-pyrazole-1-decanoic acid hydrate], the IC50 in experiment [1] (setting [4]) is 3.5 µg/mL.

In the case of `O=C(O)CCCCCCCCn1cc(-c2ccccc2)c(-c2ccccc2)n1` [Example 17, 3,4-Diphenyl-lH-pyrazol-1-nonanoic acid hydrate], in experiment [1] (setting [4]), the IC50 came out at 1.5 µg/mL.

Take `c1ccc(-c2nn(CCCCCCCCc3nn[nH]n3)c(-c3ccccc3)c2-c2ccccc2)cc1` [Example 40, 5-[8-(3,4,5-Triphenyl-lH-pyrazol-1-yl)octyl]-2 H-tetrazole]: the IC50 was 0.5 µg/mL (≈ 1.05 µM) in experiment [1] (setting [4]) and 0.052 µg/mL (≈ 0.109 µM) in experiment [2].
